Data as given in patent publication US12612368B2 (Remedy Plan, Inc., priority 2019, dated 2026).
pIC50: −log10 of the molar value. Read-outs that look alike come from different tables or passages of the source.

Legend:
[1] = tested on: MV-4-11 cells; assay: Cell viability in MV-4-11 cells (CellTiter Glo2); type: cell-based; details: Homo sapiens, MV4-11, 96 h, 8-point dose response, 4 days
Experimental: Approximately 10,000 MV-4-11 cells per well of a 96-well plate were treated with DMSO (no drug control) or each compound in Tables E1 and E2 in an 8-point dose response for 4 days, Cell viability was measured using CellTiter Glo2. The ICse of each compound was determined using CDD Vault.

[2] = biological target: T1, NAMPT (Homo sapiens, UniProt P43490); assay: NAMPT Activity Assay (Abcam #ab221819); type: biochemical; details: purified NAMPT, two-step reaction, OD450 nm; percent inhibition vs no drug; compound concentration not stated
T1 construct: purchased Abcam ab221819
T1 sequence (P43490 whole entry): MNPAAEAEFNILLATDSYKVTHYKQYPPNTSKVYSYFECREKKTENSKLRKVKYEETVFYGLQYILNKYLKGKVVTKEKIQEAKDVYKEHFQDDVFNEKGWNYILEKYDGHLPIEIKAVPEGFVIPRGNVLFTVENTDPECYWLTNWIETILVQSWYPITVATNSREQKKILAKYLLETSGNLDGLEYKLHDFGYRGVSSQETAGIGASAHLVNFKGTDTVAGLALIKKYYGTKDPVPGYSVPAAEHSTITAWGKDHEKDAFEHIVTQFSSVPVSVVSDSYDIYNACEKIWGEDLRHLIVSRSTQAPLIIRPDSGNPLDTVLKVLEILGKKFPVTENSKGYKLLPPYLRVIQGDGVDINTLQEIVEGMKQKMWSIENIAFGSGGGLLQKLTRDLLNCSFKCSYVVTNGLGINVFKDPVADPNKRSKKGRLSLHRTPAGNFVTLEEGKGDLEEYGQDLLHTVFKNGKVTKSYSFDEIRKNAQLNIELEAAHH

[3] = CellTiter Glo2 (Table E2), read-out: MV-4-11 Cell Viability, MV-4-11 IC50
[4] = CellTiter Glo2 (Table E1), read-out: MV-4-11 IC50

| pIC50 [1, 3] | NAMPT Inhibition Code [2] | pIC50 [1, 4] | Structure (SMILES) |
| --- | --- | --- | --- |
| 8.34 | C (C = ≥66% inhibition) | – | Cc1cc(-c2ccc(C(=O)NCc3cccnc3)cn2)ccc1N(C(=O)C(F)F)C(C)C [Compound I-595, 6-[4-[(2,2-Difluoroacetyl)-isopropyl-amino]-3-methyl-phenyl]-N-(3-pyridylmethyl)pyridine-3-carboxamide] |
| 6.47 | C (C = ≥66% inhibition) | – | CC(=O)N(CC1CC1)c1ccc(-c2ccc(C(=O)NCc3cncc(F)c3)cn2)cc1Cl [Compound I-690, 6-[4-[Acetyl(cyclopropylmethyl)amino]-3-chloro-phenyl]-N-[(5-fluoro-3-pyridyl)methyl]pyridine-3-carboxamide] |
| 7.17 | C (C = ≥66% inhibition) | – | CC(=O)N(CC(F)F)c1ccc(-c2ccc(C(=O)NCc3cccnc3)cn2)cc1Cl [Compound I-619, 6-[4-[Acetyl(2,2-difluoroethyl)amino]-3-chloro-phenyl]-N-(3-pyridylmethyl)pyridine-3-carboxamide] |
| 6.58 | A (A = <33% inhibition) | – | CC(=O)N(CC1CC1)c1ccc(-c2ccc(C(=O)Nc3ccn4ccnc4c3)cn2)cc1Cl [Compound I-687, 6-[4-[Acetyl(cyclopropylmethyl)amino]-3-chloro-phenyl]-N-imidazo[1,2-a]pyridin-7-yl-pyridine-3-carboxamide] |
| – | A (A = <33% inhibition) | 5.21 | CCC(=O)N(C)c1ccc(-c2ccc(C(=O)NCc3cccnc3Cl)cn2)cc1 [Compound I-395, N-[(2-chloro-3-pyridyl)methyl]-6-[4-[methyl(propanoyl)amino]phenyl]pyridine-3-carboxamide] |
| 5.83 | A (A = <33% inhibition) | – | Cc1cc(-c2ccc(C(=O)NCc3cccnc3)cn2)ccc1N(C)C(=O)CCN [Compound I-593, 6-[4-[3-aminopropanoyl(methyl)amino]-3-methyl-phenyl]-N-(3-pyridylmethyl)pyridine-3-carboxamide] |
| – | C (C = ≥66% inhibition) | 7.23 | CC(=O)N(CC(C)C)c1ccc(-c2ccc(C(=O)NCc3cccnc3)cc2)cc1 [Compound I-402, 4-[4-[acetyl(isobutyl)amino]phenyl]-N-(3-pyridylmethyl)benzamide] |
| 7.68 | C (C = ≥66% inhibition) | – | CCCN(C(C)=O)c1ccc(-c2ccc(C(=O)NCc3cccnc3)cn2)cc1Cl [Compound I-606, 6-[4-[Acetyl(propyl)amino]-3-chloro-phenyl]-N-(3-pyridylmethyl)pyridine-3-carboxamide] |
| 5.61 | A (A = <33% inhibition) | – | CC(=O)N(CC1CC(F)(F)C1)c1ccc(-c2ccc(C(=O)NCc3cccnc3C)cn2)cc1 [Compound I-517, 6-[4-[Acetyl-[(3,3-difluorocyclobutyl)methyl]amino]phenyl]-N-[(2-methyl-3-pyridyl)methyl]pyridine-3-carboxamide] |
| 8.09 | C (C = ≥66% inhibition) | – | CC(=O)N(CC1COC1)c1ccc(-c2ccc(C(=O)NCc3cccnc3)cn2)cc1Cl [Compound I-620, 6-[4-[Acetyl(oxetan-3-ylmethyl)amino]-3-chloro-phenyl]-N-(3-pyridylmethyl)pyridine-3-carboxamide] |
| – | B (B = ≥33 to <66% inhibition) | 6.93 | CC(=O)N(CC1CC1)c1ccc(-c2ccc(C(=O)NCc3cccnc3)cn2)cc1 [Compound I-421, 6-[4-[acetyl(cyclopropylmethyl)amino]phenyl]-N-(3-pyridylmethyl)pyridine-3-carboxamide] |
| 5.74 | A (A = <33% inhibition) | – | COC(=O)NCCC(=O)N(C)c1ccc(-c2ccc(C(=O)NCc3cccnc3C)cn2)cc1C [Compound I-501, Methyl N-[3-[N,2-dimethyl-4-[5-[(2-methyl-3-pyridyl)methylcarbamoyl]-2-pyridyl]anilino]-3-oxo-propyl]carbamate] |
| 5.24 | A (A = <33% inhibition) | – | CC(=O)CC(=O)N(c1ccc(-c2ccc(C(=O)NCc3cccnc3C)cn2)cc1C)C(C)C [Compound I-497, 6-(4-(N-isopropyl-3-oxobutanamido)-3-methylphenyl)-N-((2-methylpyridin-3-yl)methyl)nicotinamide] |
| 7.48 | B (B = ≥33 to <66% inhibition) | – | CC(C)CN(C(=O)C(F)F)c1ccc(-c2ccc(C(=O)NCc3cccnc3)cn2)cc1 [Compound I-468, 6-[4-[(2,2-Difluoroacetyl)-isobutyl-amino]phenyl]-N-(3-pyridylmethyl)pyridine-3-carboxamide] |
| – | B (B = ≥33 to <66% inhibition) | 4.86 | CCC(=O)N(C)c1ccc(-c2ccc(C(=O)NCc3ccc(OC)nc3)cn2)cc1 [Compound I-397, N-[(6-methoxy-3-pyridyl)methyl]-6-[4-[methyl(propanoyl)amino]phenyl]pyridine-3-carboxamide] |
| – | A (A = <33% inhibition) | 5.43 | CCc1cc(-c2ccc(C(=O)NCc3cccnc3C)cn2)ccc1N(C)C(C)=O [Compound I-445, 6-[4-[acetyl(methyl)amino]-3-ethyl-phenyl]-N-[(2-methyl-3-pyridyl)methyl]pyridine-3-carboxamide] |
| 7.20 | B (B = ≥33 to <66% inhibition) | – | CC(=O)N(CCC(F)(F)F)c1ccc(-c2ccc(C(=O)NCc3cccnc3)cn2)cc1C [Compound I-601, 6-[4-[Acetyl(3,3,3-trifluoropropyl)amino]-3-methyl-phenyl]-N-(3-pyridylmethyl)pyridine-3-carboxamide] |
| > 8.23 | C (C = ≥66% inhibition) | – | CC(=O)N(CC1CC(F)(F)C1)c1ccc(-c2ccc(C(=O)NCc3cccnc3)cn2)cc1Cl [Compound I-603, 6-[4-[Acetyl-[(3,3-difluorocyclobutyl)methyl]amino]-3-chloro-phenyl]-N-(3-pyridylmethyl)pyridine-3-carboxamide] |
| – | B (B = ≥33 to <66% inhibition) | 6.57 | CCN(C(C)=O)c1ccc(-c2ccc(C(=O)NCc3cccnc3)cn2)cc1C [Compound I-430, 6-[4-[acetyl(ethyl)amino]-3-methyl-phenyl]-N-(3-pyridylmethyl)pyridine-3-carboxamide] |
| 6.45 | B (B = ≥33 to <66% inhibition) | – | CC(=O)N(CCC(F)F)c1ccc(-c2ccc(C(=O)NCc3cccnc3)cn2)cc1 [Compound I-629, 6-[4-[Acetyl(3,3-difluoropropyl)amino]phenyl]-N-(3-pyridylmethyl)pyridine-3-carboxamide] |
| 6.88 | B (B = ≥33 to <66% inhibition) | – | CC(=O)N(CCC(F)F)c1ccc(-c2ccc(C(=O)NCc3cccnc3)cn2)cc1C [Compound I-639, 6-[4-[Acetyl(3,3-difluoropropyl)amino]-3-methyl-phenyl]-N-(3-pyridylmethyl)pyridine-3-carboxamide] |
| 6.65 | A (A = <33% inhibition) | – | CCC(=O)N(CCN)c1ccc(-c2ccc(C(=O)NCc3cccnc3)cn2)cc1C [Compound I-502, 6-[4-[2-aminoethyl(propanoyl)amino]-3-methyl-phenyl]-N-(3-pyridylmethyl)pyridine-3-carboxamide] |
| 5.65 | A (A = <33% inhibition) | – | CC(=O)N(CC1CC1)c1ccc(-c2ccc(C(=O)NCc3ccc(C)nc3C)cn2)cc1C [Compound I-489, 6-[4-[Acetyl(cyclopropylmethyl)amino]-3-methyl-phenyl]-N-[(2,6-dimethyl-3-pyridyl)methyl]pyridine-3-carboxamide] |
| 5.23 | A (A = <33% inhibition) | – | CC(=O)N(CC1COC1)c1ccc(-c2ccc(C(=O)NCc3cccnc3C)cn2)cc1C [Compound I-510, 6-[4-[Acetyl(oxetan-3-ylmethyl)amino]-3-methyl-phenyl]-N-[(2-methyl-3-pyridyl)methyl]pyridine-3-carboxamide] |
| 5.82 | A (A = <33% inhibition) | – | CC(=O)N(CC(C)C)c1ccc(-c2ccc(C(=O)NCc3cccnc3C)cn2)cc1Cl [Compound I-459, 6-[4-[acetyl(isobutyl)amino]-3-chloro-phenyl]-N-[(2-methyl-3-pyridyl)methyl]pyridine-3-carboxamide] |
| 6.46 | B (B = ≥33 to <66% inhibition) | – | CC(=O)N(CC1CC1)c1ccc(-c2ccc(C(=O)NCc3ccnc(N)c3)cn2)cc1Cl [Compound I-674, 6-[4-[Acetyl(cyclopropylmethyl)amino]-3-chloro-phenyl]-N-[(2-amino-4-pyridyl)methyl]pyridine-3-carboxamide] |
| 5.36 | A (A = <33% inhibition) | – | CC(=O)N(CC(C)C)c1ccc(-c2ccc(C(=O)NCc3cccnc3C)cn2)cc1 [Compound I-467, 6-[4-[Acetyl(isobutyl)amino]phenyl]-N-[(2-methyl-3-pyridyl)methyl]pyridine-3-carboxamide] |
| 7.42 | C (C = ≥66% inhibition) | – | CC(=O)N(CC1CCC1)c1ccc(-c2ccc(C(=O)NCc3cccnc3)cn2)cc1 [Compound I-453, 6-[4-[acetyl(cyclobutylmethyl)amino]phenyl]-N-(3-pyridylmethyl)pyridine-3-carboxamide] |
| 6.65 | B (B = ≥33 to <66% inhibition) | – | CC(=O)N(CCC(F)(F)F)c1ccc(-c2ccc(C(=O)NCc3cccnc3)cn2)cc1 [Compound I-482, 6-[4-[Acetyl(3,3,3-trifluoropropyl)amino]phenyl]-N-(3-pyridylmethyl)pyridine-3-carboxamide] |
| < 6.00 | A (A = <33% inhibition) | – | CC(=O)N(CC1CC1)c1ccc(-c2ccc(C(=O)NCc3ccncc3)cn2)cc1Cl [Compound I-676, 6-[4-[Acetyl(cyclopropylmethyl)amino]-3-chloro-phenyl]-N-(4-pyridylmethyl)pyridine-3-carboxamide] |
